Experimental data: article PMC7822030, “Hybrid Inhibitors of DNA Gyrase A and B: Design, Synthesis and Evaluation” (Pharmaceutics, 2020)
Read-outs that look alike come from different tables or passages of the source.

Key:
P. aeruginosa ATCC 27863 = test: MIC broth microdilution, P. aeruginosa; format: cell-based; conditions: Pseudomonas aeruginosa
Description: (§1) E. coli MG1655 originated from the laboratory collection of Dr. Csaba Pál. […] E. coli K-12 BW25113 single-gene knockout mutant lines ΔdapF, ΔmrcB, ΔsurA, ΔacrB and ΔtolC originated form the Keio collection copy owned by the laboratory of Dr. Csaba Pál.
(§2) Cation-adjusted Mueller Hinton II broth (MHBII) was used for growth of the bacteria under standard laboratory conditions, for antimicrobial susceptibility tests, and for selection of resistant variants. To prepare the MHBII broth, 22 g MHBII powder (containing 3 g beef extract, 17.5 g acid hydrolysate of casein, 1.5 g starch; Becton, Dickinson and Co., Franklin Lakes, NJ, USA) was dissolved in 1 L water. MHBII agar was prepared by addition of 14 g agar (Bacto; Molar Chemicals, Halásztelek, Hungary) to 1 L broth.
(§3) Minimum inhibitory concentrations (MICs) were determined using a standard serial broth microdilution technique, according to the Clinical and Laboratory Standards Institute guidelines. […] For Enterococcus sp., the cells were plated in BHI agar plates, and BHI broth was used to determine the MICs. […] Following the dilutions, each well was seeded with 5 × 10^4 bacterial cells. Each measurement was performed in three parallel replicates, and to avoid possible edge effects in the microwell plates, the outside rows (A, H) were filled with sterile medium. Following the inoculations, the plates were covered with the lids and wrapped in polyethylene plastic bags, to minimize evaporation but to allow O2 transfer. […] After incubation, the OD600 of each well was measured using a microplate reader (Synergy 2; Biotek, Winooski, VT, USA).

A. baumannii ATCC 17978 = test: MIC broth microdilution, A. baumannii; format: cell-based; conditions: Acinetobacter baumannii, ATCC17978, read-out: MIC A. baumannii ATCC #
Description: as §1, §2, §3

K. pneumoniae ATCC 10031 = test: MIC broth microdilution, K. pneumoniae; format: cell-based; conditions: Klebsiella pneumoniae, ATCC10031, read-out: MIC K. pneumoniae ATCC #
Description: as §1, §2, §3

[1] = test system: E. cloacae spp. cloacae ATCC 13047; test: MIC broth microdilution, E. cloacae; format: cell-based, Enterobacter cloacae; conditions: for MIC: Enterobacter cloacae, ATCC13047, read-out: MIC E. cloacae spp. cloacae ATCC #
E. coli topoisomerase IV = molecular target: T1, E. coli topoisomerase IV (Escherichia coli, UniProt P0AFI2+P20083); test: E. coli topoisomerase IV relaxation assay; format: biochemical; conditions: for Inhibition of topoisomerase IV (in words): relaxation assay
T1 construct: purchased Inspiralis, Norwich, UK
Protocol: (§4) The assay for determination of the IC50 values was performed according to previously reported procedures.
(§5) Briefly, inhibitory activities were determined using supercoiling (for DNA gyrase) and relaxation (for topoisomerase IV) assay kits (Inspiralis, Norwich, UK) on streptavidin-coated 96-well microtiter plates from Thermo Scientific Pierce (Thermo Fisher Scientific, Waltham, MA, USA). First, the plates were rehydrated with Wash Buffer and the biotinylated oligonucleotide TFO1 was then immobilized. After washing off the unbound oligonucleotide with Wash Buffer, the enzyme assay was performed. Into each well was added 24 µL of mixture containing 6 µL of Assay Buffer (containing ATP), 0.75 µL of relaxed (for E. coli DNA gyrase supercoiling assay) or supercoiled (for E. coli topoisomerase IV relaxation assay) pNO1 plasmid and 17.25 µL of water. Additionally, 3 µL of a solution of the inhibitor in 10% DMSO containing 0.008% Tween 20 and 3 µL of enzyme (1.5 U) in Dilution Buffer were also added to the wells. […] The TF buffer was added to terminate the enzymatic reaction and after additional incubation for 30 min at room temperature, which allowed for triplex formation (biotin–oligonucleotide–plasmid), the unbound plasmid was washed off using TF buffer. Promega Diamond dye in T10 buffer was then added. […] Here, the compounds were diluted using 2-fold serial dilution steps of the given compound. GraphPad Prism 6.0 software was used to calculate the IC50 values, which were determined in at least two independent measurements, and their means are given as the final result. […] Dose-response curves can be found in Supplementary Materials.

E. coli ATCC 25922 = test: MIC broth microdilution, E. coli ATCC 25922; format: cell-based; conditions: Escherichia coli, ATCC25922, read-out: MIC E. coli ATCC #
Description: as §1, §2, §3

[2] = test system: E. coli MG1655 GyrB R136C; test: microbe, parasite or virus in culture; format: cell-based, Escherichia coli; conditions: for MIC: Escherichia coli, MG1655, read-out: Minimum Inhibitory Concentration E. coli MG# GyrB R#C; for Minimum Inhibitory Concentration E. coli MG1655 GyrB R136C: in the presence of 50 µg/mL PAβN
Description: as §1, §2, §3
(§6) These mutated amino acids are the most common sites for target-based resistance in E. coli.

[3] = test system: E. coli MG1655 GyrA S83L, D87N ParC S80I, E84G; test: microbe, parasite or virus in culture; format: cell-based, Escherichia coli; conditions: for MIC: Escherichia coli, MG1655, read-out: Minimum Inhibitory Concentration E. coli MG# GyrA S83L, D87N ParC S80I, E84G; for Minimum Inhibitory Concentration E. coli MG1655 GyrA S83L, D87N ParC S80I, E84G: in the presence of 50 µg/mL PAβN
Description: as §1, §2, §3, §6

E. coli BW25113 WT = test: MIC, E. coli BW25113 wild-type; format: cell-based; conditions: Escherichia coli, BW25113, read-out: Minimum Inhibitory Concentration E. coli BW# WT
Description: as §1, §2, §3

E. coli BW25113 ΔdapF = format: cell-based, Escherichia coli
Description: as §1, §2, §3

E. coli BW25113 ΔacrB = format: cell-based, Escherichia coli
Description: as §1, §2, §3

E. coli BW25113 ΔmrcB = format: cell-based, Escherichia coli
Description: as §1, §2, §3

E. coli BW25113 ΔsurA = format: cell-based, Escherichia coli
Description: as §1, §2, §3

E. coli BW25113 ΔtolC = format: cell-based, Escherichia coli; conditions: for MIC change, ΔtolC mutant versus wild-type E. coli BW25113: improvement of MIC in impaired efflux pump mutant
Description: as §1, §2, §3

E. coli DNA gyrase = molecular target: T2, E. coli DNA gyrase (Escherichia coli, UniProt P0AES4+P0AES6); test: E. coli DNA gyrase supercoiling assay; format: biochemical
T2 construct: purchased Inspiralis, Norwich, UK
Protocol: as §4, §5

E. coli MG1655 WT = test: MIC, E. coli MG1655 wild-type with PAβN; format: cell-based, Escherichia coli; conditions: for MIC: Escherichia coli, MG1655, read-out: Minimum Inhibitory Concentration E. coli MG# WT, 50 µg/mL PAβN, molar conversion in parentheses; for Minimum Inhibitory Concentration E. coli MG1655 WT: in the presence of 50 µg/mL PAβN
Description: as §1, §2
as §3, with “USA). […]” for “USA).”

[4] = ATCC27863, 18 h, read-out: MIC P. aeruginosa ATCC #
[5] = ATCC27863, read-out: MIC P. aeruginosa ATCC #, molar conversion in parentheses, read-out: MIC P. aeruginosa ATCC 27863
[6] = molar conversion in parentheses

SMILES | MIC (P. aeruginosa ATCC 27863; [4]) [µg/mL] | MIC (P. aeruginosa ATCC 27863; [5]) [µM] | MIC (A. baumannii ATCC 17978; broth microdilution, 18 h) [µg/mL] | MIC (A. baumannii ATCC 17978; [6]) [µM] | MIC (K. pneumoniae ATCC 10031; broth microdilution, 18 h) [µg/mL] | MIC (K. pneumoniae ATCC 10031; [6]) [µM] | Antibacterial activity against E. cloacae (in words) [1] | MIC ([1]; broth microdilution, 18 h) [µg/mL] | MIC [1, 6] [µM] | IC50 (E. coli topoisomerase IV) [nM] | MIC (E. coli ATCC 25922; broth microdilution, 18 h) [µg/mL] | MIC (E. coli ATCC 25922; [6]) [µM] | MIC [2] [µM] | Minimum Inhibitory Concentration E. coli MG1655 GyrB R136C [2] [µg/mL] | MIC [3] [µM] | Minimum Inhibitory Concentration E. coli MG1655 GyrA S83L, D87N ParC S80I, E84G [3] [µg/mL] | MIC (E. coli BW25113 WT; [6]) [µM] | MIC (E. coli BW25113 WT; wild-type) [µg/mL] | Inhibition of topoisomerase IV (in words) (E. coli topoisomerase IV) | Minimum Inhibitory Concentration E. coli BW25113 ΔdapF (E. coli BW25113 ΔdapF; impaired cell-wall mutant) [µg/mL] | further results
Cc1[nH]c(C(=O)Nc2nc3ccc(C(=O)O)cc3s2)c(Cl)c1Cl [Compound 1a, 2-(3,4-dichloro-5-methyl-1H-pyrrole-2-carboxamido)benzo[d]thiazole-6-carboxylic acid, reference compound] | 8 | 21.6 | 4 | 10.8 | 1 | 2.7 | inactive | > 64 | > 173 | 500 ± 280 | 4 | 10.8 | – | – | – | – | – | – | – | – | –
Cc1[nH]c(C(=O)Nc2nc3c(OCc4ccccc4)cc(C(=O)O)cc3s2)c(Cl)c1Cl [Compound 1b, reference compound] | 2 | 4.2 | 2 | 4.2 | 4 | 8.4 | inactive | > 64 | > 134 | – | 16 | 33.6 | – | – | – | – | – | – | – | – | –
Cc1[nH]c(C(=O)Nc2nc3ccc(C(=O)NCC(=O)N4CCN(c5cc6c(cc5F)c(=O)c(C(=O)O)cn6C5CC5)CC4)cc3s2)c(Cl)c1Cl [Compound 7a, 1-Cyclopropyl-7-(4-((2-(3,4-dichloro-5-methyl-1H-pyrrole-2-carboxamido)benzo[d]thiazole-6-carbonyl)glycyl)piperazin-1-yl)-6-fluoro-4-oxo-1,4-dihydroquinoline-3-carboxylic acid] | > 64 | > 86.4 | > 64 | > 86.4 | 4 | 5.4 | – | > 64 | > 86.4 | 2500 ± 1300 | > 64 | > 86.4 | 2.7 | 2 | 0.675 | 0.5 | > 86.4 | > 64 | low micromolar | >64 | Minimum Inhibitory Concentration E. coli BW25113 ΔdapF (E. coli BW25113 ΔdapF; [6]): (>86.4 µM); Minimum Inhibitory Concentration E. coli BW25113 ΔacrB (E. coli BW25113 ΔacrB; efflux pump mutant): >64 µg/mL; Minimum Inhibitory Concentration E. coli BW25113 ΔacrB (E. coli BW25113 ΔacrB; [6]): (>86.4 µM); Minimum Inhibitory Concentration E. coli BW25113 ΔmrcB (E. coli BW25113 ΔmrcB; impaired cell-wall mutant): >64 µg/mL; Minimum Inhibitory Concentration E. coli BW25113 ΔmrcB (E. coli BW25113 ΔmrcB; [6]): (>86.4 µM); Minimum Inhibitory Concentration E. coli BW25113 ΔsurA (E. coli BW25113 ΔsurA; impaired cell-wall mutant): >64 µg/mL; Minimum Inhibitory Concentration E. coli BW25113 ΔsurA (E. coli BW25113 ΔsurA; [6]): (>86.4 µM); Minimum Inhibitory Concentration E. coli BW25113 ΔtolC (E. coli BW25113 ΔtolC; efflux pump mutant): 2 µg/mL; MIC change, ΔtolC mutant versus wild-type E. coli BW25113 (E. coli BW25113 ΔtolC): above 32 fold; Minimum Inhibitory Concentration E. coli BW25113 ΔtolC (E. coli BW25113 ΔtolC; [6]): (2.70 µM); IC50 (E. coli DNA gyrase): 92 ± 10 nM; MIC (E. coli MG1655 WT): 1.35 µM; Minimum Inhibitory Concentration E. coli MG1655 WT (E. coli MG1655 WT): 1 µg/mL
Cc1[nH]c(C(=O)Nc2nc3ccc(C(=O)NCCC(=O)N4CCN(c5cc6c(cc5F)c(=O)c(C(=O)O)cn6C5CC5)CC4)cc3s2)c(Cl)c1Cl [Compound 7b, 1-Cyclopropyl-7-(4-(3-(2-(3,4-dichloro-5-methyl-1H-pyrrole-2-carboxamido)benzo[d]thiazole-6-carboxamido)propanoyl)piperazin-1-yl)-6-fluoro-4-oxo-1,4-dihydroquinoline-3-carboxylic acid] | > 64 | > 84.8 | > 64 | > 84.8 | 8 | 10.6 | – | > 64 | > 84.8 | 3100 | > 64 | > 84.8 | 1.32 | 1 | 1.32 | 1 | > 84.8 | > 64 | low micromolar | >64 | Minimum Inhibitory Concentration E. coli BW25113 ΔdapF (E. coli BW25113 ΔdapF; [6]): (>84.8 µM); Minimum Inhibitory Concentration E. coli BW25113 ΔacrB (E. coli BW25113 ΔacrB; efflux pump mutant): >64 µg/mL; Minimum Inhibitory Concentration E. coli BW25113 ΔacrB (E. coli BW25113 ΔacrB; [6]): (>84.8 µM); Minimum Inhibitory Concentration E. coli BW25113 ΔmrcB (E. coli BW25113 ΔmrcB; impaired cell-wall mutant): >64 µg/mL; Minimum Inhibitory Concentration E. coli BW25113 ΔmrcB (E. coli BW25113 ΔmrcB; [6]): (>84.8 µM); Minimum Inhibitory Concentration E. coli BW25113 ΔsurA (E. coli BW25113 ΔsurA; impaired cell-wall mutant): >64 µg/mL; Minimum Inhibitory Concentration E. coli BW25113 ΔsurA (E. coli BW25113 ΔsurA; [6]): (>84.8 µM); Minimum Inhibitory Concentration E. coli BW25113 ΔtolC (E. coli BW25113 ΔtolC; efflux pump mutant): 2 µg/mL; MIC change, ΔtolC mutant versus wild-type E. coli BW25113 (E. coli BW25113 ΔtolC): above 32 fold; Minimum Inhibitory Concentration E. coli BW25113 ΔtolC (E. coli BW25113 ΔtolC; [6]): (2.65 µM); IC50 (E. coli DNA gyrase): 130 ± 10 nM; MIC (E. coli MG1655 WT): 1.32 µM; Minimum Inhibitory Concentration E. coli MG1655 WT (E. coli MG1655 WT): 1 µg/mL
